# Measurements from patent publication US8192962B2, “Processes for detecting toxic substances” (Daikin Industries, Ltd., priority 2001, dated 2012).
# System: Genes belonging to other category
# Test: DNA chip mRNA expression in yeast, genes belonging to other category (Table 9)
# Assay type: cell-based, Saccharomyces cerevisiae S288C
# Method in brief: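 Ratios compare mRNA levels in stressed and control S. cerevisiae. Each toxicant was applied for two hours to log-phase cultures at 25° C. at a sub-lethal, growth-inhibiting level; fluorescent cDNA (Cy3- or Cy5-dUTP) was hybridized to a genome-wide yeast chip for over 12 h at 65° C.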
smiles,measurement,setting,value
"Cl[C@H]1[C@H](Cl)[C@@H](Cl)[C@@H](Cl)[C@H](Cl)[C@H]1Cl [(7), γ-hexachlorocyclohexane]",The level of expressed mRNA in the presence of chemical substance/The level of expressed mRNA in the absence of chemical substance,yeast gene YKL013C,1.8
same,The level of expressed mRNA in the presence of chemical substance/The level of expressed mRNA in the absence of chemical substance,yeast gene YKL039W,2.0
same,The level of expressed mRNA in the presence of chemical substance/The level of expressed mRNA in the absence of chemical substance,yeast gene YKL041W,1.0
same,The level of expressed mRNA in the presence of chemical substance/The level of expressed mRNA in the absence of chemical substance,yeast gene YKL096W,0.2
same,The level of expressed mRNA in the presence of chemical substance/The level of expressed mRNA in the absence of chemical substance,yeast gene YKL139W,2.6
same,The level of expressed mRNA in the presence of chemical substance/The level of expressed mRNA in the absence of chemical substance,yeast gene YKL165C,2.1
same,The level of expressed mRNA in the presence of chemical substance/The level of expressed mRNA in the absence of chemical substance,yeast gene YKL193C,2.1
same,The level of expressed mRNA in the presence of chemical substance/The level of expressed mRNA in the absence of chemical substance,yeast gene YLR120C,1.5
same,The level of expressed mRNA in the presence of chemical substance/The level of expressed mRNA in the absence of chemical substance,yeast gene YLR136C,3.9
same,The level of expressed mRNA in the presence of chemical substance/The level of expressed mRNA in the absence of chemical substance,yeast gene YLR178C,3.3
same,The level of expressed mRNA in the presence of chemical substance/The level of expressed mRNA in the absence of chemical substance,yeast gene YLR250W,1.9
same,The level of expressed mRNA in the presence of chemical substance/The level of expressed mRNA in the absence of chemical substance,yeast gene YLR327C,5.7
same,The level of expressed mRNA in the presence of chemical substance/The level of expressed mRNA in the absence of chemical substance,yeast gene YLR356W,1.1
same,The level of expressed mRNA in the presence of chemical substance/The level of expressed mRNA in the absence of chemical substance,yeast gene YLR362W,1.9
same,The level of expressed mRNA in the presence of chemical substance/The level of expressed mRNA in the absence of chemical substance,yeast gene YLR391W,0.7
same,The level of expressed mRNA in the presence of chemical substance/The level of expressed mRNA in the absence of chemical substance,yeast gene YLR429W,1.3
same,The level of expressed mRNA in the presence of chemical substance/The level of expressed mRNA in the absence of chemical substance,yeast gene YMR004W,1.2
same,The level of expressed mRNA in the presence of chemical substance/The level of expressed mRNA in the absence of chemical substance,yeast gene YMR094W,0.8
same,The level of expressed mRNA in the presence of chemical substance/The level of expressed mRNA in the absence of chemical substance,yeast gene YMR104C,1.5
same,The level of expressed mRNA in the presence of chemical substance/The level of expressed mRNA in the absence of chemical substance,yeast gene YMR226C,1.8
same,The level of expressed mRNA in the presence of chemical substance/The level of expressed mRNA in the absence of chemical substance,yeast gene YMR275C,0.8
same,The level of expressed mRNA in the presence of chemical substance/The level of expressed mRNA in the absence of chemical substance,yeast gene YMR276W,1.1
same,The level of expressed mRNA in the presence of chemical substance/The level of expressed mRNA in the absence of chemical substance,yeast gene YMR314W,1.1
same,The level of expressed mRNA in the presence of chemical substance/The level of expressed mRNA in the absence of chemical substance,yeast gene YNL006W,1.6
same,The level of expressed mRNA in the presence of chemical substance/The level of expressed mRNA in the absence of chemical substance,yeast gene YNL007C,1.2
same,The level of expressed mRNA in the presence of chemical substance/The level of expressed mRNA in the absence of chemical substance,yeast gene YNL093W,1.4
same,The level of expressed mRNA in the presence of chemical substance/The level of expressed mRNA in the absence of chemical substance,yeast gene YNL333W,2.9
same,The level of expressed mRNA in the presence of chemical substance/The level of expressed mRNA in the absence of chemical substance,yeast gene YNR010W,1.5
same,The level of expressed mRNA in the presence of chemical substance/The level of expressed mRNA in the absence of chemical substance,yeast gene YNR069C,1.4
same,The level of expressed mRNA in the presence of chemical substance/The level of expressed mRNA in the absence of chemical substance,yeast gene YOL013C,1.7
same,The level of expressed mRNA in the presence of chemical substance/The level of expressed mRNA in the absence of chemical substance,yeast gene YOL164W,2.2
same,The level of expressed mRNA in the presence of chemical substance/The level of expressed mRNA in the absence of chemical substance,yeast gene YOR036W,1.8
same,The level of expressed mRNA in the presence of chemical substance/The level of expressed mRNA in the absence of chemical substance,yeast gene YOR117W,3.3
same,The level of expressed mRNA in the presence of chemical substance/The level of expressed mRNA in the absence of chemical substance,yeast gene YOR124C,1.1
same,The level of expressed mRNA in the presence of chemical substance/The level of expressed mRNA in the absence of chemical substance,yeast gene YOR132W,1.4
same,The level of expressed mRNA in the presence of chemical substance/The level of expressed mRNA in the absence of chemical substance,yeast gene YOR157C,1.2
same,The level of expressed mRNA in the presence of chemical substance/The level of expressed mRNA in the absence of chemical substance,yeast gene YOR181W,0.7
same,The level of expressed mRNA in the presence of chemical substance/The level of expressed mRNA in the absence of chemical substance,yeast gene YOR185C,1.3
same,The level of expressed mRNA in the presence of chemical substance/The level of expressed mRNA in the absence of chemical substance,yeast gene YOR198C,1.6
same,The level of expressed mRNA in the presence of chemical substance/The level of expressed mRNA in the absence of chemical substance,yeast gene YOR259C,1.3
same,The level of expressed mRNA in the presence of chemical substance/The level of expressed mRNA in the absence of chemical substance,yeast gene YOR261C,1.9
same,The level of expressed mRNA in the presence of chemical substance/The level of expressed mRNA in the absence of chemical substance,yeast gene YOR288C,2.0
same,The level of expressed mRNA in the presence of chemical substance/The level of expressed mRNA in the absence of chemical substance,yeast gene YOR355W,1.1
same,The level of expressed mRNA in the presence of chemical substance/The level of expressed mRNA in the absence of chemical substance,yeast gene YOR383C,8.0
same,The level of expressed mRNA in the presence of chemical substance/The level of expressed mRNA in the absence of chemical substance,yeast gene YPL089C,0.9
same,The level of expressed mRNA in the presence of chemical substance/The level of expressed mRNA in the absence of chemical substance,yeast gene YPL109C,1.8
same,The level of expressed mRNA in the presence of chemical substance/The level of expressed mRNA in the absence of chemical substance,yeast gene YPL149W,1.2
same,The level of expressed mRNA in the presence of chemical substance/The level of expressed mRNA in the absence of chemical substance,yeast gene YPL154C,1.5
same,The level of expressed mRNA in the presence of chemical substance/The level of expressed mRNA in the absence of chemical substance,yeast gene YPR103W,1.6
same,The level of expressed mRNA in the presence of chemical substance/The level of expressed mRNA in the absence of chemical substance,yeast gene YPR108W,1.6
